Data on 16 compounds can be found in ChEMBL document CHEMBL1129369, “Forskolin carbamates: binding and activation studies with type I adenylyl cyclase” (J Med Chem, 1996).

One may read the EC50 as the concentration giving half of the maximal effect. What is called IC50 is the concentration that gives 50% inhibition.

Assay [1] concerns the target T1, Adenylate cyclase type 1 (Homo sapiens, UniProt Q08828). Put plainly: Maximum stimulation activity measured with 100 uM forskolin mediated by Adenylate cyclase 1. The format is functional.
Target sequence in this assay (Q08828 whole entry, looked up): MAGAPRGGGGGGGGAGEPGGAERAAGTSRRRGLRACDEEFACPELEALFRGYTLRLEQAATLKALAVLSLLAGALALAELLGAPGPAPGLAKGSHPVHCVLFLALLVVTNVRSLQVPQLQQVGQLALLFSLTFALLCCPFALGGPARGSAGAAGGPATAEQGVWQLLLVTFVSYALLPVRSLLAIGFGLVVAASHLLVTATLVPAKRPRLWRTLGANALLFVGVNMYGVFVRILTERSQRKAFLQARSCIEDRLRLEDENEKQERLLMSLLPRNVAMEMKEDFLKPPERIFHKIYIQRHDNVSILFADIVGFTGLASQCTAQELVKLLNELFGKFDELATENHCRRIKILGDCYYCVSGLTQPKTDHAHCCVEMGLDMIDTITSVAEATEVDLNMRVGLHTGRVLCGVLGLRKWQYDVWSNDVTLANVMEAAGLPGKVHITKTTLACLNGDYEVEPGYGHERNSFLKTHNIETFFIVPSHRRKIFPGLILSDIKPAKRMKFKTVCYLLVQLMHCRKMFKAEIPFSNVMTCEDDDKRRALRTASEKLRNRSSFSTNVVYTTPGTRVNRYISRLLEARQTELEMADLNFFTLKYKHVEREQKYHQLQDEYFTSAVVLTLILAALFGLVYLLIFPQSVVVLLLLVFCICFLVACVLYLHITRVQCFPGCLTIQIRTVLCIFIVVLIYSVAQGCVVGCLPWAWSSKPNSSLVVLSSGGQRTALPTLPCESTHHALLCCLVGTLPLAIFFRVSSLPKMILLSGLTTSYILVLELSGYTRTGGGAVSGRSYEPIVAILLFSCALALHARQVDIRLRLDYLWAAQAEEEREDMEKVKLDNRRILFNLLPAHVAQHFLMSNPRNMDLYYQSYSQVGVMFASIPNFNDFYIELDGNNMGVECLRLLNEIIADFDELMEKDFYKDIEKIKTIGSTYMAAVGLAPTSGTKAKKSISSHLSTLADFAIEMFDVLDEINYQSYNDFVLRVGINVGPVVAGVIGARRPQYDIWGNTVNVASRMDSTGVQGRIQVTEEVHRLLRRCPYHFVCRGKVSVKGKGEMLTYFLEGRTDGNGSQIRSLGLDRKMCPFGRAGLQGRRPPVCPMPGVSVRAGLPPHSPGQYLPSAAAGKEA
Assay [2] has as its target T1, Adenylate cyclase type 1. In words: Ability to activate the conversion of [32P] ATP to [32P]-cyclic AMP mediated by adenylate cyclase 1. The format is functional.
Target sequence in this assay (Q08828 whole entry): as the sequence (Q08828 whole entry, looked up) above
Assay [3] addresses T1, Adenylate cyclase type 1. In words: (§1) Inhibition of [125 I]6-IHPP-forskolin binding to adenylate cyclase 1.
Target sequence in this assay (Q08828 whole entry): as the sequence (Q08828 whole entry, looked up) above
For assay [4], the target named is T1, Adenylate cyclase type 1. Put plainly: Conversion of [32P] ATP to [32P]-cyclic AMP mediated by adenylate cyclase 1. The format is functional. To be noted: read-out: EC50.
Target sequence in this assay (Q08828 whole entry): as the sequence (Q08828 whole entry, looked up) above
Assay [5] has as its target T1, Adenylate cyclase type 1. The description is as §1. The source holds these as a separate data set.
Target sequence in this assay (Q08828 whole entry): as the sequence (Q08828 whole entry, looked up) above
For assay [6], the target named is T1, Adenylate cyclase type 1. In words: Maximum stimulation activity measured with 100 uM forskolin mediated by adenylate cyclase 1. The class given is functional.
Target sequence in this assay (Q08828 whole entry, looked up): as above
The target in another assay is Adenylate cyclase type 2 (Rattus norvegicus, UniProt P26769). Put plainly: Ability to activate the conversion of [32P] ATP to [32P]-cyclic AMP. The format is functional.
Sequence of Adenylate cyclase type 2 (P26769 whole entry): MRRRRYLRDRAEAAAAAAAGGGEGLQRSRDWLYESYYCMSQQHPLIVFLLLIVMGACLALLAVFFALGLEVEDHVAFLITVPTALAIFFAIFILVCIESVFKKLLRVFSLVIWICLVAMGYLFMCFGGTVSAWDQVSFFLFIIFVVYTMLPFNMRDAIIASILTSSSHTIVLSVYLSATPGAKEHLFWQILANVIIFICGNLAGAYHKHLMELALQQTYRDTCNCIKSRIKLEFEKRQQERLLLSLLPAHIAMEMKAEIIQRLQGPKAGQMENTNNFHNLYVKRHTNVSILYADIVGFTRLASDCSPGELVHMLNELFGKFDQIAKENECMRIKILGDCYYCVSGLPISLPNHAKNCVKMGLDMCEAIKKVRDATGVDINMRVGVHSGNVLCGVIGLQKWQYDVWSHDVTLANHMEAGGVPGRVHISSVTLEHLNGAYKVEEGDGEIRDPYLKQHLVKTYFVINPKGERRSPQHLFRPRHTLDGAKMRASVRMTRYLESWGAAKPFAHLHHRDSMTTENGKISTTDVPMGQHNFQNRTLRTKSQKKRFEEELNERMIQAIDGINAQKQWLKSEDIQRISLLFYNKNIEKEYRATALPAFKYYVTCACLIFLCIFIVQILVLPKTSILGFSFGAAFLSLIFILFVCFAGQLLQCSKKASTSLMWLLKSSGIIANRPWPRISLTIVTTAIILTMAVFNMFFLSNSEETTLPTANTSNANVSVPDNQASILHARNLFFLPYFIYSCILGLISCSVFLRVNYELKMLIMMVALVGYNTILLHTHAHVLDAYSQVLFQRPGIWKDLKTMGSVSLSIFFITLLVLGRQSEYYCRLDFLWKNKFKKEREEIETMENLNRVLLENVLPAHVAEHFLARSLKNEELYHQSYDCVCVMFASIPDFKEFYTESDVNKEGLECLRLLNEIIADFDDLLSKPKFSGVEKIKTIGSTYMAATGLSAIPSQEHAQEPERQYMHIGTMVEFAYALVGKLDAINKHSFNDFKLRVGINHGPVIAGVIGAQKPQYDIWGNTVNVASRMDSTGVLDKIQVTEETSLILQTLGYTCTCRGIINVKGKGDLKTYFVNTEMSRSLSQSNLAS
For assay [7], the target named is T1, Adenylate cyclase type 1. Put plainly: (§2) Inhibition of [125 I]6-IHPP-forskolin binding to Adenylate cyclase 1.
Target sequence in this assay (Q08828 whole entry): as the sequence (Q08828 whole entry, looked up) above
The target of assay [8] is T1, Adenylate cyclase type 1. The assay is described as §2. The format is functional.
Target sequence in this assay (Q08828 whole entry): as the sequence (Q08828 whole entry, looked up) above

For the compound `C=C[C@@]1(C)CC(=O)[C@]2(O)[C@@]3(C)[C@@H](O)CCC(C)(C)[C@@H]3[C@H](O)[C@H](OC(=O)NCCc3ccc(N)cc3)[C@@]2(C)O1`, the Activity at Adenylate cyclase type 1 [1] came out at 68%. Further, the figures for the EC50 at Adenylate cyclase type 1 [2] and on Adenylate cyclase type 1 [4] were below 2 µM and 1.1 µM, respectively. For the same compound, the values for the IC50 at Adenylate cyclase type 1 [3] and at Adenylate cyclase type 1 [5] were below 0.15 µM and 0.064 µM, respectively.

In turn, `C=C[C@@]1(C)CC(=O)[C@]2(O)[C@@]3(C)[C@@H](O)CCC(C)(C)[C@@H]3[C@H](O)[C@H](OC(C)=O)[C@@]2(C)O1` [COLFORSIN] came in with an Activity at Adenylate cyclase type 1 [6] of 100%. Besides, the EC50 was below 2 µM at Adenylate cyclase type 2 and 0.5 µM at Adenylate cyclase type 1 [4]. For the same compound, the results for the IC50 on Adenylate cyclase type 1 [7] and at Adenylate cyclase type 1 [5] were below 0.15 µM and 0.041 µM, respectively.

In the case of `C=C[C@@]1(C)CC(=O)[C@]2(O)[C@@]3(C)[C@@H](O)CCC(C)(C)[C@@H]3[C@H](O)[C@H](OC(=O)NCCO)[C@@]2(C)O1`, the Activity on Adenylate cyclase type 1 [1] worked out at 119%. Also, the results for the EC50 at Adenylate cyclase type 1 [2] and on Adenylate cyclase type 1 [4] were below 2 µM and 1.4 µM, respectively. Also, the IC50 is below 0.15 µM at Adenylate cyclase type 1 [3] and 0.043 µM on Adenylate cyclase type 1 [5].

As for `C=C[C@@]1(C)CC(=O)[C@]2(O)[C@@]3(C)[C@@H](O)CCC(C)(C)[C@@H]3[C@H](OC(=O)NCCOC)[C@H](O)[C@@]2(C)O1`, the Activity at Adenylate cyclase type 1 [1] was found to be 84%. For the same compound, the EC50 is above 2 µM on Adenylate cyclase type 1 [2] and 3.1 µM at Adenylate cyclase type 1 [4]. Further, the IC50 was above 0.15 µM on Adenylate cyclase type 1 [3] and 0.318 µM on Adenylate cyclase type 1 [5].

`C=C[C@@]1(C)CC(=O)[C@]2(O)[C@@]3(C)[C@@H](O)CCC(C)(C)[C@@H]3[C@H](O)[C@H](OC(=O)NCCN(C)C)[C@@]2(C)O1`: the Activity at Adenylate cyclase type 1 [1] worked out at 89%. Moreover, the EC50 at Adenylate cyclase type 1 [2] was above 2 µM; at Adenylate cyclase type 1 [4], 2.2 µM. For the same compound, the IC50 at Adenylate cyclase type 1 [3] is above 0.15 µM; on Adenylate cyclase type 1 [5] it was 0.228 µM.

For `C=C[C@@]1(C)CC(=O)[C@]2(O)[C@@]3(C)[C@@H](O)CCC(C)(C)[C@@H]3[C@H](OC(=O)NCCN(C)C)[C@H](O)[C@@]2(C)O1`, the EC50 was above 2 µM at Adenylate cyclase type 1 [2] and 4.9 µM on Adenylate cyclase type 1 [4]. The Activity on Adenylate cyclase type 1 [6] worked out at 131%. Further, the results for the IC50 at Adenylate cyclase type 1 [3] and on Adenylate cyclase type 1 [5] were above 0.15 µM and 0.247 µM, respectively.

With `C=C[C@@]1(C)CC(=O)[C@]2(O)[C@@]3(C)[C@@H](O)CCC(C)(C)[C@@H]3[C@H](OC(=O)NCCN(C)C)[C@H](OC(C)=O)[C@@]2(C)O1`, the EC50 was below 2 µM on Adenylate cyclase type 1 [2] and 2 µM on Adenylate cyclase type 1 [4]. Also, the Activity on Adenylate cyclase type 1 [6] is 100%. The IC50 is below 0.15 µM at Adenylate cyclase type 1 [3] and 0.073 µM on Adenylate cyclase type 1 [5].

Regarding `C=CCNC(=O)O[C@H]1[C@H]2C(C)(C)CC[C@H](O)[C@]2(C)[C@@]2(O)C(=O)C[C@](C)(C=C)O[C@]2(C)[C@H]1OC(C)=O`, the concentration for a half-maximal effect (EC50) on Adenylate cyclase type 1 [2] is above 2 µM; on Adenylate cyclase type 1 [4], 4.4 µM. The compound further came in with an Activity on Adenylate cyclase type 1 [6] of 80%. Besides, the IC50 was below 0.15 µM at Adenylate cyclase type 1 [3] and 0.076 µM at Adenylate cyclase type 1 [5].

For the compound `C=C[C@@]1(C)CC(=O)[C@]2(O)[C@@]3(C)[C@@H](O)CCC(C)(C)[C@@H]3[C@H](O)[C@H](OC(=O)NCCN3CCCCC3)[C@@]2(C)O1`, the Activity on Adenylate cyclase type 1 [1] was 81%. Further, the EC50 at Adenylate cyclase type 1 [2] is below 2 µM; at Adenylate cyclase type 1 [4], 1.2 µM. Besides, the results for the half-inhibitory concentration (IC50) at Adenylate cyclase type 1 [3] and on Adenylate cyclase type 1 [5] were above 0.15 µM and 0.184 µM, respectively.

For the compound `C=C[C@@]1(C)CC(=O)[C@]2(O)[C@@]3(C)[C@@H](O)CCC(C)(C)[C@@H]3[C@H](OC(=O)NCCc3ccccn3)[C@H](O)[C@@]2(C)O1`, the concentration for a half-maximal effect (EC50) on Adenylate cyclase type 1 [2] is below 2 µM; at Adenylate cyclase type 1 [4], 1.8 µM. This compound also displayed an Activity on Adenylate cyclase type 1 [6] of 59%. Moreover, the IC50 on Adenylate cyclase type 1 [3] is below 0.15 µM; on Adenylate cyclase type 1 [5] it was 0.117 µM.

Consider `C=C[C@@]1(C)CC(=O)[C@]2(O)[C@@]3(C)[C@@H](O)CCC(C)(C)[C@@H]3[C@H](OC(=O)NCCC)[C@H](OC(C)=O)[C@@]2(C)O1`, for which the EC50 is above 2 µM on Adenylate cyclase type 1 [2] and 4.3 µM on Adenylate cyclase type 1 [4]. At Adenylate cyclase type 1 [6], this compound returned an Activity of 80%. The IC50 on Adenylate cyclase type 1 [3] was below 0.15 µM; at Adenylate cyclase type 1 [5], 0.076 µM.

For `C=C[C@@]1(C)CC(=O)[C@]2(O)[C@@]3(C)[C@@H](O)CCC(C)(C)[C@@H]3[C@H](OC(=O)NCCc3ccccc3)[C@H](OC(C)=O)[C@@]2(C)O1`, the values for the EC50 on Adenylate cyclase type 1 [2] and at Adenylate cyclase type 1 [4] were below 2 µM and 1.5 µM, respectively. Moreover, the Activity at Adenylate cyclase type 1 [6] was found to be 65%. In addition, the values for the IC50 at Adenylate cyclase type 1 [3] and on Adenylate cyclase type 1 [5] were below 0.15 µM and 0.036 µM, respectively.

With `C=CCNC(=O)O[C@H]1[C@@H](O)[C@H]2C(C)(C)CC[C@H](O)[C@]2(C)[C@@]2(O)C(=O)C[C@](C)(C=C)O[C@]12C`, the EC50 on Adenylate cyclase type 1 [2] was above 2 µM; at Adenylate cyclase type 1 [4], 2.4 µM. In addition, on Adenylate cyclase type 1 [6], the Activity came out at 102%. For the same compound, the values for the IC50 at Adenylate cyclase type 1 [3] and at Adenylate cyclase type 1 [5] were above 0.15 µM and 0.157 µM, respectively.

`C=C[C@@]1(C)CC(=O)[C@]2(O)[C@@]3(C)[C@@H](O)CCC(C)(C)[C@@H]3[C@H](O)[C@H](OC(=O)NCCC)[C@@]2(C)O1`: the EC50 is below 2 µM at Adenylate cyclase type 1 [2] and 1.3 µM at Adenylate cyclase type 1 [4]. Also, on Adenylate cyclase type 1 [6], the Activity was 101%. The concentration for half-maximal inhibition (IC50) at Adenylate cyclase type 1 [3] is below 0.15 µM; on Adenylate cyclase type 1 [5], 0.089 µM.

On to `C=C[C@@]1(C)CC(=O)[C@]2(O)[C@@]3(C)[C@@H](O)CCC(C)(C)[C@@H]3[C@H](OC(=O)NCCC)[C@H](O)[C@@]2(C)O1`, for which the concentration for half-maximal inhibition (IC50) on Adenylate cyclase type 1 [8] is above 0.15 µM; at Adenylate cyclase type 1 [5], 0.555 µM. In addition, the EC50 at Adenylate cyclase type 1 [2] was above 2 µM; at Adenylate cyclase type 1 [4], 4.9 µM. The compound further showed an Activity at Adenylate cyclase type 1 [6] of 61%.

Take `C=C[C@@]1(C)CC(=O)[C@]2(O)[C@@]3(C)[C@@H](O)CCC(C)(C)[C@@H]3[C@H](OC(=O)NCCO)[C@H](O)[C@@]2(C)O1`: the figures for the EC50 on Adenylate cyclase type 1 [2] and at Adenylate cyclase type 1 [4] were above 2 µM and 3.6 µM, respectively. The same compound showed an Activity on Adenylate cyclase type 1 [6] of 85%. Moreover, the IC50 is above 0.15 µM at Adenylate cyclase type 1 [3] and 0.23 µM on Adenylate cyclase type 1 [5].
